Holding throughout (format): cell-based
The target in experiment [1] is T1, MC3R (Homo sapiens, UniProt P41968).
T1 construct: host or cells: CHO-K1 (ECL assay)
The experiment in a line: cAMP assay (EC50), MC3R. To be noted: EC50(MC3R)/EC50(MC4R). As to the method: (§1) Stimulation of intracellular cyclic AMP (cAMP) levels by the peptides is determined in a dose dependent manner by an electrochemiluminescence (ECL) assay (Meso Scale Discovery, Gaithersburg, MD, USA; referred to hereinafter as “MSD”). Briefly, the CHO-K1 cells stably expressing the hMC receptor subtypes are suspended in RMPI 1640® assay buffer (RMPI 1640 buffer contains 0.5 mM IBMX, and 0.2% protein cocktail (MSD blocker A)). About 7,000 cells/well of the transgenic CHO-K1 cells stably expressing hMC receptor subtypes 1, 3, 4 or 5 are dispensed in 384-well Multi-Array plates (MSD) containing integrated carbon electrodes and coated with anti-cAMP antibody. Increasing concentrations of the test compounds are added and the cells are incubated for approximately 40 minutes at 37° C. A cell lysis buffer (HEPES-buffered saline solution with MgCl2 and Triton X-100® at pH 7.3) containing 0.2% protein cocktail and 2.5 nM TAG™ ruthenium-labeled cAMP (MSD) is added and the cells are incubated for approximately 90 minutes at room temperature. At the end of the second incubation period, the read buffer (Tris-buffered solution containing an ECL co-reactant and Triton X-100 at pH 7.8) is added and the cAMP levels in the cell lysates are immediately determined by ECL detection with a Sector Imager 6000 Reader® (MSD). Data are analyzed using a computer-assisted non-linear regression analysis (XL fit; IDBS) and reported as either an EC50 value.
(§2) Human MC4-R transfected cells are grown to confluence in 96 well plates (plating approximately 250,000 cells per well). The cells are treated in triplicate sets with 0.2 mM isobutylmethylxanthine (IBMX) and graded concentrations of the peptide or alternatively the peptide in the presence of 20 nM NDP-MSH. Cells similarly treated but with only 20 nM NDP-MSH serve as positive controls in a volume of 200 μL. A buffer blank serving as a negative control is also included. After incubation of one hour at 37° C., the cells are lysed by the addition of 50 μL of a cell lysis buffer. Total cAMP accumulated in 250 μL of this incubation medium is quantitated using a commercially available low pH cAMP assay kit (Amersham BioSciences) as per procedure specified by the kit supplier. […] The data for agonist is plotted and curve fitted to determine the EC50 value. A peptide showing accumulation in the same range as the negative control (buffer blank in the absence of alpha-MSH) is ineffective at the test concentration. A peptide showing attenuated accumulation is considered to be an antagonist if there is inhibition in cAMP when alpha-MSH is also present in the assay. Similar assay can be performed with hMC-1R, hMC-3R, and hMC-5R cells.
(§3) A chemiluminescence readout system that uses an enzyme fragment complementation (EFC) system with β-galactosidase (β-Gal) as the functional reporter system was used. This assay system for various melanocortin receptor systems is commercially available (cAMP Hunter GPCR assay system, Discoverx Corp, Fremont, CA). This assay utilizes the β-Gal enzyme that is split into two complementary portions; EA for Enzyme Acceptor and ED for Enzyme Donor. In the assay, the ED portion fused to cAMP is made to compete with cAMP generated by cells for binding to a cAMP-specific antibody. The EA is then added to form active β-Gal with any unbound ED-cAMP.
(§4) Briefly, 10000 cells per well are plated overnight and each well (cells incubated with 10 μl assay buffer) is then incubated with 4× serial concentration of the test compound in the cell assay buffer (5 μL) and cAMP antibody reagent (5 μL) for 30 min at 37° C. The cell lysis buffer (20 μL) containing ED-cAMP coupled enzyme fragment and the reporter substrate (Emerald II-Galacton Star, 5:1) is then added and incubated for 60 min at room temperature. Next, 20 μL of EA β-Gal fragment reagent is added.
In general terms: cAMP levels reflect the balance of adenylyl cyclase and phosphodiesterase activity.

Experiment [2] has as its target T2, MC1R (Homo sapiens, UniProt Q01726).
T2 construct: host or cells: CHO-K1 (ECL assay)
The experiment in a line: cAMP assay (EC50), MC1R. The conditions noted are these: EC50(MC1R)/EC50(MC4R). As to the method:
as §1, §2, §3, §4

Experiment [3] addresses T3, MC5R (Homo sapiens, UniProt P33032).
T3 construct: host or cells: CHO-K1 (ECL assay)
The experiment in a line: cAMP assay (EC50), MC5R. The conditions noted are these: EC50(MC5R)/EC50(MC4R). As to the method:
Stimulation of intracellular cyclic AMP (cAMP) levels by the peptides is determined in a dose dependent manner by an electrochemiluminescence (ECL) assay (Meso Scale Discovery, Gaithersburg, MD, USA; referred to hereinafter as “MSD”). Briefly, the CHO-K1 cells stably expressing the hMC receptor subtypes are suspended in RMPI 1640® assay buffer (RMPI 1640 buffer contains 0.5 mM IBMX, and 0.2% protein cocktail (MSD blocker A)). About 7,000 cells/well of the transgenic CHO-K1 cells stably expressing hMC receptor subtypes 1, 3, 4 or 5 are dispensed in 384-well Multi-Array plates (MSD) containing integrated carbon electrodes and coated with anti-cAMP antibody. Increasing concentrations of the test compounds are added and the cells are incubated for approximately 40 minutes at 37° C. A cell lysis buffer (HEPES-buffered saline solution with MgCl2 and Triton X-100® at pH 7.3) containing 0.2% protein cocktail and 2.5 nM TAG™ ruthenium-labeled cAMP (MSD) is added and the cells are incubated for approximately 90 minutes at room temperature. At the end of the second incubation period, the read buffer (Tris-buffered solution containing an ECL co-reactant and Triton X-100 at pH 7.8) is added and the cAMP levels in the cell lysates are immediately determined by ECL detection with a Sector Imager 6000 Reader® (MSD). Data are analyzed using a computer-assisted non-linear regression analysis (XL fit; IDBS) and reported as either an EC50 value. […]
as §3, with “ED-cAMP. This active enzyme then converts a chemiluminescent substrate to generate an output signal that is recorded on a standard microplate reader.” for “ED-cAMP.”
as §4

Bridge positions count the residues as written; N and C are the ends. Square brackets hold non-standard residues; d marks the D form. Peptide text beside a SMILES is read from it.

T3 sequence (P33032 whole entry): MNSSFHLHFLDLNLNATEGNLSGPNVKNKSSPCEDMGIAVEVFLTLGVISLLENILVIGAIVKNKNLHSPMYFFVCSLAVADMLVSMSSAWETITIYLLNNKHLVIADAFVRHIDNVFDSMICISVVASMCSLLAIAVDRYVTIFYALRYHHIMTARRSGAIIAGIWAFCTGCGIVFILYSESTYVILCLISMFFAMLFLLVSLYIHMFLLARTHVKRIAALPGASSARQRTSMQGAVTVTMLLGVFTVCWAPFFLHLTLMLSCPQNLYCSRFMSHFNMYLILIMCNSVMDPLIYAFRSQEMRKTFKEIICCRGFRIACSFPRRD
T2 sequence (Q01726 whole entry): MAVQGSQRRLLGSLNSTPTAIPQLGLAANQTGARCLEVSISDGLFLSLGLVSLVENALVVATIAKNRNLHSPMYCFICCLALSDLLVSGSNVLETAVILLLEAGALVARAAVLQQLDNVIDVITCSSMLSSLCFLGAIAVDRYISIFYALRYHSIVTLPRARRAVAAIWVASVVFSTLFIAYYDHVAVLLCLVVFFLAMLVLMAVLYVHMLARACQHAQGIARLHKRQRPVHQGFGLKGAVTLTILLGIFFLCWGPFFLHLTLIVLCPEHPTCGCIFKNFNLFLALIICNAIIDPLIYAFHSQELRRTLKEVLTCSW
T1 sequence (P41968 whole entry): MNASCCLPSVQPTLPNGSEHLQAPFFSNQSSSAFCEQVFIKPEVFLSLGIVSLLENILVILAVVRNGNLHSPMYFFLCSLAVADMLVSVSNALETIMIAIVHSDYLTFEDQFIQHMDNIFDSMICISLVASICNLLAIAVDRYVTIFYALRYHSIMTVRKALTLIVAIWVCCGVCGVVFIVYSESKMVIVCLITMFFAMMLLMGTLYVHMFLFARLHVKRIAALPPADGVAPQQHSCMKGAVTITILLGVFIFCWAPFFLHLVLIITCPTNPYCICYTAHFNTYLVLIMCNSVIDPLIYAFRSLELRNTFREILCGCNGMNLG

Take `CC(=O)N[C@@H](CCCNC(=N)N)C(=O)N[C@H]1CSSC[C@@H](C(N)=O)NC(=O)[C@H](Cc2c[nH]c3ccccc23)NC(=O)[C@H](CCCNC(=N)N)NC(=O)[C@@H](Cc2ccccc2)NC(=O)[C@H](Cc2c[nH]cn2)NC(=O)[C@@H](CC(C)C)NC1=O` [Compound 1, Ac-Arg-cyclo[Cys-D-Leu-His-D-Phe-Arg-Trp-Cys]-NH2]: the “Ratios of EC50 values MC3/4” value in experiment [1] is given as 1.13. Besides, in experiment [2], the “Ratios of EC50 values MC1/4” value was determined as 0.68. Also, the “Ratios of EC50 values MC5/4” value in experiment [3] was determined as 130.

With `CC[C@@H](C)[C@H]1NC(=O)[C@@H](NC(=O)[C@H](CCCNC(=N)N)NC(C)=O)CSSC[C@@H](C(N)=O)NC(=O)[C@H](Cc2c[nH]c3ccccc23)NC(=O)[C@H](CCCNC(=N)N)NC(=O)[C@@H](Cc2ccccc2)NC(=O)[C@H](Cc2c[nH]cn2)NC1=O` [Compound 2, Ac-Arg-cyclo[Cys-D-Ile-His-D-Phe-Arg-Trp-Cys]-NH2], the “Ratios of EC50 values MC3/4” value in experiment [1] came out at 0.96. In experiment [2], the “Ratios of EC50 values MC1/4” value turned out to be 0.69. For the same molecule, in experiment [3], the “Ratios of EC50 values MC5/4” value is 420.

In the case of `CC(=O)N[C@@H](CCCNC(=N)N)C(=O)N[C@H]1CSSC[C@@H](C(N)=O)NC(=O)[C@H](Cc2c[nH]c3ccccc23)NC(=O)[C@H](CCCNC(=N)N)NC(=O)[C@@H](Cc2ccccc2)NC(=O)[C@H](Cc2c[nH]cn2)NC(=O)[C@@H](C(C)(C)C)NC1=O` [Compound 3, Ac-Arg-cyclo[Cys-D-Tie-His-D-Phe-Arg-Trp-Cys]-NH2], the “Ratios of EC50 values MC3/4” value in experiment [1] is reported as 1. Further, in experiment [2], the “Ratios of EC50 values MC1/4” value stood at 1. For the same molecule, the “Ratios of EC50 values MC5/4” value in experiment [3] is recorded as 930.

As for `CC(=O)N[C@@H](CCCNC(=N)N)C(=O)N[C@H]1CSSC[C@@H](C(N)=O)NC(=O)[C@H](Cc2c[nH]c3ccccc23)NC(=O)[C@H](CCCNC(=N)N)NC(=O)[C@@H](Cc2ccccc2)NC(=O)[C@H](Cc2c[nH]cn2)NC(=O)[C@@H](C(C)C)NC1=O` [Compound 4, Ac-Arg-cyclo[Cys-D-Val-His-D-Phe-Arg-Trp-Cys]-NH2], in experiment [1], the “Ratios of EC50 values MC3/4” value amounted to 1.19. For the same molecule, in experiment [2], the “Ratios of EC50 values MC1/4” value was determined as 0.93. Moreover, in experiment [3], the “Ratios of EC50 values MC5/4” value worked out at 584.

Consider `CC(=O)N[C@@H](CCCNC(=N)N)C(=O)N[C@H]1CSSC[C@@H](C(N)=O)NC(=O)[C@H](Cc2c[nH]c3ccccc23)NC(=O)[C@H](CCCNC(=N)N)NC(=O)[C@@H](Cc2ccccc2)NC(=O)[C@H](Cc2cncn2C)NC(=O)[C@@H](C)NC1=O` [Compound 5, Ac-Arg-cyclo[Cys-D-Ala-His(3-Me)-D-Phe-Arg-Trp-Cys]-NH2], for which the “Ratios of EC50 values MC3/4” value in experiment [1] came out at 350. Further, the “Ratios of EC50 values MC1/4” value in experiment [2] amounted to 4. For the same molecule, the “Ratios of EC50 values MC5/4” value in experiment [3] is 945.

Consider `CC(=O)N[C@@H](CCCNC(=N)N)C(=O)N[C@H]1CSSC[C@@H](C(N)=O)NC(=O)[C@H](Cc2c[nH]c3ccccc23)NC(=O)[C@H](CCCNC(=N)N)NC(=O)[C@@H](Cc2ccccc2)NC(=O)[C@H](Cc2cn(C)cn2)NC(=O)[C@@H](C)NC1=O` [Compound 6, Ac-Arg-cyclo[Cys-D-Ala-His(1-Me)-D-Phe-Arg-Trp-Cys]-NH2], for which the “Ratios of EC50 values MC3/4” value in experiment [1] is given as 6. Besides, the “Ratios of EC50 values MC1/4” value in experiment [2] came out at 40. Also, the “Ratios of EC50 values MC5/4” value in experiment [3] was 662.

For the molecule `CC(=O)N[C@@H](CCCNC(=N)N)C(=O)N[C@H]1CSSC[C@@H](C(N)=O)NC(=O)[C@H](Cc2c[nH]c3ccccc23)NC(=O)[C@H](CCCNC(=N)N)NC(=O)[C@@H](Cc2ccccc2)NC(=O)[C@H](Cc2c[nH]c3ccccc23)NC(=O)[C@@H](C)NC1=O` [Compound 7, Ac-Arg-cyclo[Cys-D-Ala-Trp-D-Phe-Arg-Trp-Cys]-NH2] (Ac-RC[dA]W[dF]RWC-NH2; disulfide 2-8), the “Ratios of EC50 values MC3/4” value in experiment [1] is greater than 290. The “Ratios of EC50 values MC1/4” value in experiment [2] is recorded as 8. Moreover, the “Ratios of EC50 values MC5/4” value in experiment [3] turned out to be 7.

Take `CC(=O)N[C@@H](CCCNC(=N)N)C(=O)N[C@H]1CSSC[C@@H](C(N)=O)NC(=O)[C@H](Cc2c[nH]c3ccccc23)NC(=O)[C@H](CCCNC(=N)N)NC(=O)[C@@H](Cc2ccccc2)NC(=O)[C@H](CCC(N)=O)NC(=O)[C@@H](C)NC1=O` [Compound 8, Ac-Arg-cyclo[Cys-D-Ala-Gln-D-Phe-Arg-Trp-Cys]-NH2] (Ac-RC[dA]Q[dF]RWC-NH2; disulfide 2-8): the “Ratios of EC50 values MC3/4” value in experiment [1] came to 5. Also, the “Ratios of EC50 values MC1/4” value in experiment [2] was determined as 40. Besides, in experiment [3], the “Ratios of EC50 values MC5/4” value was found to be 155.

Take `CC(=O)N[C@@H](CCCNC(=N)N)C(=O)N[C@H]1CSSC[C@@H](C(N)=O)NC(=O)[C@H](Cc2c[nH]c3ccccc23)NC(=O)[C@H](CCCNC(=N)N)NC(=O)[C@@H](Cc2ccccc2)NC(=O)[C@H](CC(N)=O)NC(=O)[C@@H](C)NC1=O` [Compound 9, Ac-Arg-cyclo[Cys-D-Ala-Asn-D-Phe-Arg-Trp-Cys]-NH2] (Ac-RC[dA]N[dF]RWC-NH2; disulfide 2-8): the “Ratios of EC50 values MC3/4” value in experiment [1] is listed as 30. The “Ratios of EC50 values MC1/4” value in experiment [2] was determined as 90. For the same molecule, the “Ratios of EC50 values MC5/4” value in experiment [3] is recorded as 530.

Take `CC(=O)N[C@@H](CCCNC(=N)N)C(=O)N[C@H]1CSSC[C@@H](C(N)=O)NC(=O)[C@H](Cc2c[nH]c3ccccc23)NC(=O)[C@H](CCCNC(=N)N)NC(=O)[C@@H](Cc2ccccc2)NC(=O)[C@H](CCCNC(=N)N)NC(=O)[C@@H](C)NC1=O` [Compound 10, Ac-Arg-cyclo[Cys-D-Ala-Arg-D-Phe-Arg-Trp-Cys]-NH2] (Ac-RC[dA]R[dF]RWC-NH2; disulfide 2-8): the “Ratios of EC50 values MC3/4” value in experiment [1] worked out at 1.45. Besides, in experiment [2], the “Ratios of EC50 values MC1/4” value stood at 2.31.

Regarding `CC(=O)N[C@@H](CCCNC(=N)N)C(=O)N[C@H]1CSSC[C@@H](C(N)=O)NC(=O)[C@H](Cc2c[nH]c3ccccc23)NC(=O)[C@H](CCCNC(=N)N)NC(=O)[C@@H](Cc2ccccc2)NC(=O)[C@H](Cc2ccc(O)cc2)NC(=O)[C@@H](C)NC1=O` [Compound 11, Ac-Arg-cyclo[Cys-D-Ala-Tyr-D-Phe-Arg-Trp-Cys]-NH2] (Ac-RC[dA]Y[dF]RWC-NH2; disulfide 2-8), the “Ratios of EC50 values MC3/4” value in experiment [1] is greater than 22.2. Moreover, in experiment [2], the “Ratios of EC50 values MC1/4” value stood at 6.67.

Values taken from patent US12285460B2, “Pharmaceutical compositions” (RHYTHM PHARMACEUTICALS, INC., priority 2013, dated 2025).
